Test [1] deals with human CD8-positive memory T cell. The test is described as follows: Cell growth inhibition test of human CD8-positive memory T cell (anti-CD3 antibody stimulation, BrdU uptake). Type of test: cell-based. The following applies: 48 hours. The protocol: A heparinized blood sample was collected from a human, healthy volunteer, and peripheral blood mononuclear cell (PBMC) was isolated by a density gradient centrifugation. Specifically, a blood sample (33 ml) 2-fold diluted with physiological saline was overlaid on a medium for hemocyte separation use (10 ml) having a specific gravity of 1.077±0.001 g/ml contained in a centrifugation tube (LymphoPrep tube (Nycomed Pharma)) and centrifuged (3000×g, 10 minutes) at room temperature. The layer containing PBMC was recovered and washed twice with PBS to isolate PBMC.
CD8-positive T cell was isolated from PBMC by a negative selection method using Human T Cell CD8 Subset Column Kit (R & D Systems, Inc). Specifically, the cells to be removed such as B cell, CD4-positive T cell, and monocyte were labeled with antibodies by adding an antibody cocktail (1 ml) (attached to the kit) to PBMC (up to 2×10^8 cells) and incubating at room temperature for 15 minutes. The cells were washed twice with a column buffer (10 ml) (attached to the kit) and suspended in said column buffer (2 ml). The cell suspension was added to Human T Cell Subset Enrichment Column (attached to the kit) which had been equilibrated in advance using the column buffer (10 ml). By eluting with the column buffer (10 ml) after incubation at room temperature for 10 minutes, the CD8-positive T cell was obtained.
CD8-positive naive T cell and CD8-positive memory T cell were obtained by fractionating the CD8-positive T cell obtained by the above-described method using VarioMACS (Miltenyl Biotec). Specifically, a marker of naive T cell, CD45RA antigen, was labeled with antibody magnetic beads by adding 20 μl of CD45RA MicroBeads (Miltenyl Biotec) to 1×10^7 cells of the CD8-positive T cell, mixing them and incubating at 6 to 12° C. for 15 minutes. The cells were washed once with MACS buffer (PBS containing 2 mM EDTA and 0.5% bovine serum albumin (BSA)) (20 ml) (attached to the kit) and re-suspended in MACS buffer (0.5 ml). The cell suspension was added to an MS column (Miltenyl Biotec) which had been set to VarioMACS and equilibrated with MACS buffer (0.5 ml) in advance, and further washed with MACS buffer (0.5 ml×3 times). This washing solutions were recovered and used in the following test as the CD45RA-negative cell, namely CD8-positive memory T cell. Also, since the CD45RA-positive cell can be recovered by taking off the MS column from VarioMACS and eluting it with MACS buffer (1.5 ml), this was used in the following test as the CD8-positive naive T cell.
The cells fractionated by the method described in the above-described (2-1) were inoculated into a 96 well plate coated with an anti-human CD3 antibody, at a cell density of 2×10^5 cells/200 μl/well. The anti-human CD3 antibody-coated 96 well plate used herein was prepared by coating it with an anti-human CD3 antibody OKT-3 (0.1 μg/ml) overnight at 4° C. The cells were cultured for 48 hours in a CO2 incubator (5% CO2, humidity 95%) kept at 37° C. The cell growth was measured using Cell Proliferation ELISA, BrdU (Colorimetric) (Roche), using uptake of 5-bromo-2-deoxyuridine (BrdU) as the index. The operation method is shown below.
After treating the cells with BrdU for a predetermined period of time, the plate was centrifuged (300×g, 10 minutes), and then turned upside down and lightly shaken to remove the labeled medium. The plate was dried (for about 15 minutes) using a hair dryer. A cell fixing and DNA denaturing solution (200 μl, attached to the kit) was added to each well and left alone for 30 minutes. After removing the cell fixing and DNA denaturing solution and further removing water, a peroxidase-labeled anti-BrdU antibody (anti-BrdU-POD reaction solution) (100 μl) (attached to the kit) was added thereto and left alone at room temperature for 90 minutes. […]

The target in the next test is T1, human CCR5 (Homo sapiens, UniProt P51681).
T1 construct: expressed in transfected cells
As to the kind of experiment: Migration test of human CCR5 expression cell (hCCR5-Ba/F3 cell). It counts as cell-based. The conditions noted are these: hCCR5-Ba/F3 cells, 3 hours. As to the method: The Ba/F3 cell was statically cultured in a CO2 incubator (temperature: 37° C., CO2 concentration: 5%, humidity: 100%) using RPMI-1640 medium (Gibco BRL) containing an antibiotic preparation (Antibiotic-Antimycotic) (final concentration: penicillin G sodium (100 U/ml), streptomycin sulfate (100 μg/ml), amphotericin B (0.25 μg/ml)) (Gibco BRL), fetal bovine serum (FBS) (10%) and interleukin 3 (IL-3) (5 ng/ml) (Pepro Tech, Inc). For the culturing of an external gene stably over-expressing cell, blasticidin (Kaken Pharmaceutical) was added to the above-described medium to a final concentration of 10 μg/ml.
The plasmid for human CCR5 expression (pEF-BOS-bsr′/hCCR5) was made into linear chain by digesting with AatII. The linear-chained plasmid was purified using QIA Quick PCR Purification Kit (QIAGEN) and then transferred into Ba/F3 cell by electroporation (Gene Pulser (BIO RAD) 960 μF/250 V). The cells were inoculated into a 96 well culture plate at a cell density of 1000, 100 or 10 cells/100 μl/well, and 48 hours thereafter, blasticidin was added thereto to a final concentration of 10 μg/ml to carry out cloning of blasticidin resistant strains, thereby establishing a stable over-expression clone capable of expressing the transferred external gene (hCCR5-Ba/F3 cell).
The test was started by superposing the upper chamber on the lower chamber, and the cells were cultured for 3 hours in a CO2 incubator (5% CO2, humidity 95%) kept at 37° C. Outside bottom moiety of the upper chamber was washed out into the lower chamber using 0.5 ml of a washing buffer (phosphate buffered saline (PBS) containing sodium ethylenediaminetetraacetate (EDTA) (2 mM (and FBS (0.1%)), and the number of cells in the lower chamber was counted using a flow cytometer (Becton Dickinson).
The migration inhibition activity by the compounds of the present invention was calculated as the inhibition ratio (%) in accordance with the following formula, in which the value of well to which the medium containing DMSO but not containing the drug to be tested was added was used as the control value (A), and the value of well to which the DMSO-containing medium containing the drug to be tested was added as the value (B). Inhibition ratio (%)=[(A−B)/A]×100

The mark [2] stands for this setting: MIP-1α 3 nM in lower chamber, read-out: IC50 (nM), migration inhibition, chemokine MIP-1α.
Where [3] appears, read: MIP-1β 3 nM in lower chamber, read-out: IC50 (nM), migration inhibition, chemokine MIP-1β.
Where [4] appears, read: RANTES 3 nM in lower chamber, read-out: IC50 (nM), migration inhibition, chemokine RANTES.

Read-outs that look alike come from different tables or passages of the source.

T1 sequence (P51681 whole entry): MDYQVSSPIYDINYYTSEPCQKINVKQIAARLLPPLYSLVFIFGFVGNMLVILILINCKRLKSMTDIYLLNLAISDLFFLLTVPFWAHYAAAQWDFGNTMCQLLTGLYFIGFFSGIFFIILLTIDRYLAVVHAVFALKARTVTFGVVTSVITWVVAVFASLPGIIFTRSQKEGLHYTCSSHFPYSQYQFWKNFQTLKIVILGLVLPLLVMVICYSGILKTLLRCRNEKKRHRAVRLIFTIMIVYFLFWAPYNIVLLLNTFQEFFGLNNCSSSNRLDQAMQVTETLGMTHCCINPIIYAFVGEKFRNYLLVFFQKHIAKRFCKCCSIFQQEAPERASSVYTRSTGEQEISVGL

As to `CCCCN1C(=O)[C@@H]([C@H](O)C2CCCCC2)NC(=O)C12CCN(Cc1ccc(Cc3ccc(C(=O)O)cc3OC)cc1)CC2` [Compound (b), 4-[4-({(3R)-1-butyl-3-[(R)-cyclohexyl(hydroxy)methyl]-2,5-dioxo-1,4,9-triazaspiro[5.5]undec-9-yl}methyl)benzyl]-3-methoxybenzoic acid], the “inhibition ratio of cell growth” value is on record as −10.6% in test [1] (0.01 μM), 5.6% in test [1] (0.1 μM), 18.3% in test [1] (1 μM) and 53.6% in test [1] (10 μM). Moreover, the IC50 on human CCR5 (setting [2]) amounted to 9.8 nM; at human CCR5 (setting [3]), 11.1 nM; on human CCR5 (setting [4]), 12.4 nM.
As to `CCCCN1C(=O)[C@@H]([C@H](O)C2CCCCC2)NC(=O)C12CCN(Cc1ccc(Oc3ccc(C(=O)O)cc3OCC)cc1)CC2.Cl` [Compound (c), 4-[4-({(3R)-1-butyl-3-[(R)-cyclohexyl(hydroxy)methyl]-2,5-dioxo-1,4,9-triazaspiro[5.5]undec-9-yl}methyl)phenoxy]-3-ethoxybenzoic acid hydrochloride], the “inhibition ratio of cell growth” value in test [1] (0.01 μM) is 9.2%; in test [1] (0.1 μM), 13.4%; in test [1] (1 μM) it was 18.8%; in test [1] (10 μM), 39.6%. For the same compound, the IC50 amounted to 17.3 nM on human CCR5 (setting [2]), 18.4 nM at human CCR5 (setting [3]) and 22.5 nM at human CCR5 (setting [4]).

These data come from US20070270429A1, “Function Inhibitor of Effector Cell” (priority 2003, published 2007).
